ChEMBL document CHEMBL1795229, “Vasorelaxant effects of macrocyclic bis(bibenzyls) from liverworts” (Bioorg Med Chem, 2011)
Values belong to the compound of their own block, whether it stands above or below them. The source made the active and inactive calls. No cut-off for these calls is given here.

Columns and labels:
[1] = tested on: Aorta; assay: Vasorelaxant activity in Wistar rat endothelium-intact aortic rings assessed as inhibition of phenylephrine-induced contractions at 30 uM after 10 to 30 mins; type: functional, tissue-based
[2] = tested on: Aorta; assay: Vasorelaxant activity in Wistar rat endothelium-denuded aortic rings assessed as inhibition of phenylephrine-induced contractions at 10 to 100 uM after 10 to 60 mins; type: functional
[3] = tested on: Aorta; assay: Vasorelaxant activity in Wistar rat endothelium-intact aortic rings assessed as inhibition of phenylephrine-induced contractions at 10 to 100 uM after 10 to 60 mins; type: functional
[4] = tested on: Aorta; assay: Vasorelaxant activity in Wistar rat endothelium-intact aortic rings assessed as inhibition of phenylephrine-induced contractions after 10 to 60 mins; type: functional, tissue-based
[5] = tested on: Aorta; assay: Vasorelaxant activity in Wistar rat endothelium-intact aortic rings assessed as inhibition of phenylephrine-induced contractions at 10 to 100 uM; type: functional, tissue-based; conditions: TDE = time-dependent effect
[6] = tested on: Aorta; assay: Vasorelaxant activity in Wistar rat aortic rings assessed as inhibition of phenylephrine-induced contractions at 10 to 100 uM after 10 to 60 mins in presence of 100 uM of NO synthase inhibitor L-NMMA; type: functional, tissue-based
[7] = tested on: Aorta; assay: Vasorelaxant activity in Wistar rat endothelium-denuded aortic rings assessed as inhibition of phenylephrine-induced contractions in calcium-free medium at 30 uM pretreated with nicardipine; type: functional, tissue-based
[8] = tested on: Aorta; assay: Vasorelaxant activity in Wistar rat endothelium-denuded aortic rings assessed as inhibition of phenylephrine-induced contractions presence of 1 mM of potassium channel inhibitor TEA; type: functional, tissue-based
[9] = tested on: Aorta; assay: Vasorelaxant activity in Wistar rat endothelium-denuded aortic rings assessed as inhibition of phenylephrine-induced contractions at 10 to 100 uM; type: functional, tissue-based; conditions: TDE = time-dependent effect
[10] = tested on: Aorta; assay: Vasorelaxant activity in Wistar rat endothelium-denuded aortic rings assessed as inhibition of calcium chloride-induced contractions in calcium-free potassium-rich medium at 30 uM; type: functional, tissue-based
[11] = tested on: Aorta; assay: Vasorelaxant activity in Wistar rat endothelium-intact aortic rings assessed as inhibition of phenylephrine-induced contractions after 10 to 30 mins; type: functional, tissue-based

Compound: COc1cc(CCc2cccc(Oc3c(O)cccc3CCc3ccc(O)cc3)c2)cc(O)c1O
inhibition [1]: Active

Compound: COc1ccc2c(c1)CCc1ccc(OC)c(c1)-c1cc(ccc1OC)CCc1ccc-2c(OC)c1
inhibition [1]: Active

Compound: Oc1ccc2cc1Oc1ccc(cc1)CCc1cccc(c1)Oc1c(O)cccc1CC2
inhibition [1]: Active

Compound: Oc1ccc2c(c1)CCc1ccc(cc1)Oc1cc(ccc1O)CCc1ccc-2c(O)c1 [RICCARDI C]
inhibition [2]: inactive
inhibition [1]: Active
inhibition (INH) [3]: >60%
inhibition [4]: Dose-dependent effect
inhibition [5]: tde

Compound: COc1ccc2cc1Oc1ccc(cc1)CCc1cc(O)ccc1-c1ccc(cc1O)CC2 [RICCARDI F]
inhibition [2]: inactive
inhibition [1]: Active
inhibition (INH) [3]: >60%
inhibition [4]: Dose-dependent effect
inhibition [5]: tde

Compound: COc1ccc2c(c1)CCc1ccc(cc1)Oc1cc(ccc1O)CCc1ccc-2c(O)c1 [RICCARDIN A]
inhibition [2]: inactive
inhibition [1]: Active
inhibition (INH) [3]: >60%
inhibition [4]: Dose-dependent effect
inhibition [5]: tde

Compound: COc1cccc(CCc2ccc(O)c(Oc3ccc(CCc4cccc(O)c4)cc3)c2)c1
inhibition [1]: Active

Compound: COc1cc2c(cc1O)-c1ccc(O)cc1CCc1cc(O)c(O)c(c1)Oc1ccc(cc1)CC2 [PLAGIOCHIN A]
inhibition [6]: inactive
inhibition [2]: inactive
inhibition [1]: Active
inhibition (INH) [3]: >60%
inhibition [4]: Dose-dependent effect
inhibition [5]: tde

Compound: Oc1ccc(CCc2cccc(O)c2O)cc1Oc1ccc(CCc2cccc(O)c2O)cc1
inhibition [1]: Active

Compound: Oc1cccc(CCc2ccc(Oc3cc(CCc4cccc(O)c4)cc(O)c3O)cc2)c1 [PERROTETTIN F]
inhibition [7]: Active
inhibition (INH) [2]: >80%
inhibition [1]: Active
inhibition [8]: Active
inhibition (INH) [3]: >60%
inhibition [4]: Dose-dependent effect
inhibition [9]: tde
inhibition [5]: tde
inhibition [10]: Active

Compound: Oc1ccc2c(c1)CCc1ccc(O)c(c1)-c1cc(ccc1O)CCc1ccc-2c(O)c1 [ISOPLAGIOCHIN D]
inhibition [7]: Active
inhibition (INH) [2]: >80%
inhibition [1]: Active
inhibition [8]: Active
inhibition (INH) [3]: >60%
inhibition [4]: Dose-dependent effect
inhibition [9]: tde
inhibition [5]: tde
inhibition [10]: Active

Compound: Oc1ccc2c(c1)CCc1ccc(cc1)Oc1cc(cc(-c3cc4cc(c3O)Oc3ccc(cc3)CCc3cc(O)ccc3-c3ccc(cc3O)CC4)c1O)CCc1ccc-2c(O)c1
inhibition [1]: Active

Compound: Oc1ccc2c(c1)/C=C/c1ccc(O)c(c1)Oc1ccc(cc1)CCc1cccc(c1)O2
inhibition [1]: Active

Compound: COc1cccc2c1Oc1cccc(c1)CCc1cc(OC)c(OC)c(c1)Oc1ccc(cc1)CC2
inhibition [1]: Active

Compound: COC1Cc2cccc(c2)Oc2c(O)cccc2CCc2ccc(cc2)Oc2cc1cc(O)c2O (configuration not stated)
inhibition [1]: Active

Compound: Oc1ccc2cc1-c1cc(ccc1O)CCc1c(ccc(O)c1O)Oc1cccc(c1)/C=C\2 [ISOPLAGIOCHIN B]
inhibition [7]: Active
inhibition (INH) [2]: >80%
inhibition [1]: Active
inhibition [8]: inactive
inhibition (INH) [3]: >60%
inhibition [4]: Dose-dependent effect
inhibition [9]: tde
inhibition [5]: tde
inhibition [10]: inactive

Compound: Oc1cc2cc(c1O)Oc1ccc(cc1)CCc1cccc(O)c1Oc1cccc(c1)CC2
inhibition [1]: Active

Compound: COc1cc2cc(c1OC)Oc1ccc(cc1)CCc1ccc(OC)c(OC)c1Oc1cccc(c1)CC2
inhibition [1]: Active

IC50 [11]: 1 µM
Compound: CC(=O)OCC[N+](C)(C)C [ACETYLCHOLINE]

Compound: Oc1cc2cc(c1O)Oc1ccc(cc1)CCc1ccc(O)c(O)c1Oc1cccc(c1)CC2
inhibition [1]: Active

Compound: Oc1ccc2c(c1)CCc1ccc(O)c(c1)-c1cc(ccc1O)/C=C\c1cccc(c1)O2
inhibition [1]: Active
